The results in this text go back to PubChem BioAssay (NCI).

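Results reflect a 48-hour exposure of cells in 96-well plates to compound at five concentrations. GI50: concentration for 50% inhibition of growth. The concentration for full growth arrest is given as TGI.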

Some test systems named below: OVCAR-5 ovarian; SK-MEL-28 melanoma; NCI-H23 lung; U251 CNS; IGROV1 ovarian; UACC-62 melanoma; NCI-H460 lung; SF-268 CNS; SNB-19 CNS; MALME-3M melanoma.
Common to all, as to assay: growth of human tumour cells (NCI), 48 h

With `C#Cc1c(I)n(C2OC(CO[Si](C)(C)C(C)(C)C)C3OC(C)(C)OC32)c(=O)[nH]c1=O` (centres undefined), the GI50 with OVCAR-5 ovarian is 20.4 µM; with SK-MEL-28 melanoma, 2 µM; in the test on NCI-H23 lung it was 18.9 µM; with U251 CNS it was 19.5 µM; with IGROV1 ovarian, 4.46 µM; in the test on UACC-62 melanoma, 17.9 µM. For the same compound, the GI50 was 20 µM in the test on NCI-H460 lung, 12.3 µM with SF-268 CNS, 24.1 µM with SNB-19 CNS and 2.41 µM in the test on MALME-3M melanoma. Besides, the TGI in the test on OVCAR-5 ovarian turned out to be 37 µM; in the test with SK-MEL-28 melanoma, 4.43 µM; in the test on NCI-H23 lung, 39.6 µM; in the test with U251 CNS, 65.8 µM; in the test on IGROV1 ovarian, 19.1 µM; in the test on UACC-62 melanoma, 33.7 µM. The TGI in the test with NCI-H460 lung was found to be 40.4 µM; with SF-268 CNS, 27.8 µM; with SNB-19 CNS it was 78.8 µM; in the test with MALME-3M melanoma, 6.59 µM.

On to `O=c1cc(NC2CCN(CCCc3ccccc3)CC2)c2cc(Cl)ccc2o1`, for which the GI50 is 10.8 µM in the test on OVCAR-5 ovarian; 11.1 µM in the test with SK-MEL-28 melanoma; 14.6 µM in the test on NCI-H23 lung; 9.19 µM with U251 CNS; 11.3 µM in the test on IGROV1 ovarian; 15.1 µM with UACC-62 melanoma. Besides, the GI50 is 15.7 µM in the test with NCI-H460 lung, 14.3 µM in the test with SF-268 CNS, 13.4 µM in the test with SNB-19 CNS and 11.2 µM with MALME-3M melanoma. For the same compound, the TGI with OVCAR-5 ovarian turned out to be 24.6 µM; with SK-MEL-28 melanoma, 23.9 µM; in the test with NCI-H23 lung, 30.3 µM; in the test on U251 CNS, 21.3 µM; in the test with IGROV1 ovarian, 26.6 µM; in the test on UACC-62 melanoma, 29.8 µM. The TGI in the test on NCI-H460 lung is 29.6 µM; in the test with SF-268 CNS, 28.3 µM; in the test on SNB-19 CNS it was 29.8 µM; with MALME-3M melanoma it was 25.4 µM.

In the case of `O=C1CC2CCCC23CC2(CCN13)OCCO2` (centres undefined), the TGI in the test on OVCAR-5 ovarian, with SK-MEL-28 melanoma, with NCI-H23 lung, in the test with U251 CNS, in the test with IGROV1 ovarian and in the test on UACC-62 melanoma was more than 100 µM each time. Also, the TGI in the test with NCI-H460 lung, with SF-268 CNS, in the test on SNB-19 CNS and in the test with MALME-3M melanoma was more than 100 µM throughout.

As to `CN(C)C(=O)[C@H](O)[C@H](Cc1ccccc1)NC(=O)c1cc2cc(Cl)ccc2[nH]1`, the GI50 with OVCAR-5 ovarian is 19.1 µM; with SK-MEL-28 melanoma it was 19 µM; in the test on NCI-H23 lung, 25.8 µM; in the test on U251 CNS it was 17.9 µM; in the test with IGROV1 ovarian, 22.4 µM; in the test on UACC-62 melanoma it was 13.5 µM. Moreover, the GI50 in the test with NCI-H460 lung was 22 µM; with SF-268 CNS, 21.1 µM; with SNB-19 CNS, 26.1 µM; with MALME-3M melanoma it was 16.2 µM. The TGI was 49.9 µM in the test on OVCAR-5 ovarian; 54.5 µM with SK-MEL-28 melanoma; more than 100 µM in the test on NCI-H23 lung; 42.5 µM with U251 CNS; 69.1 µM in the test on IGROV1 ovarian; 32.7 µM with UACC-62 melanoma. Also, the TGI was 56.1 µM in the test with NCI-H460 lung, 73.3 µM with SF-268 CNS, more than 100 µM in the test with SNB-19 CNS and 44.1 µM in the test with MALME-3M melanoma.

On to `COc1ccc(CCN2COc3c([C@@H](C)CCC=C(C)C)ccc(C)c3C2)cc1OC`, for which the GI50 was 8.53 µM in the test on OVCAR-5 ovarian; 2.21 µM in the test with SK-MEL-28 melanoma; 2.55 µM in the test with NCI-H23 lung; 1.91 µM in the test on U251 CNS; 1.08 µM in the test on IGROV1 ovarian; 3.48 µM with UACC-62 melanoma. Further, the GI50 in the test with NCI-H460 lung was 2.06 µM; in the test on SF-268 CNS, 1.45 µM; in the test on SNB-19 CNS it was 12.1 µM; with MALME-3M melanoma it was 1.53 µM. In addition, the TGI in the test on OVCAR-5 ovarian came to 20.8 µM; with SK-MEL-28 melanoma, 4.94 µM; with NCI-H23 lung, 6.08 µM; in the test on U251 CNS, 4.47 µM; in the test on IGROV1 ovarian, 3.52 µM; in the test with UACC-62 melanoma it was 14.6 µM. In addition, the TGI in the test with NCI-H460 lung stood at 4.3 µM; with SF-268 CNS it was 4.34 µM; in the test on SNB-19 CNS, 42.8 µM; in the test with MALME-3M melanoma, 3.18 µM.

`CCCCON(OC(=O)c1ccc2ccc3cccc4ccc1c2c34)C(C)=O`: the GI50 with OVCAR-5 ovarian is 23.2 µM; in the test on SK-MEL-28 melanoma it was 27.1 µM; with NCI-H23 lung, 17 µM; with U251 CNS, 18.1 µM; in the test on IGROV1 ovarian, 16.5 µM; with UACC-62 melanoma, 21.5 µM. For the same compound, the GI50 was 32.1 µM in the test with NCI-H460 lung, 19.5 µM in the test on SF-268 CNS, 34.3 µM with SNB-19 CNS and 18.3 µM in the test on MALME-3M melanoma. In addition, the TGI with OVCAR-5 ovarian worked out at 92 µM; with SK-MEL-28 melanoma, 81.7 µM; in the test on NCI-H23 lung, 35.5 µM; in the test on U251 CNS, 36.5 µM; with IGROV1 ovarian it was 55.2 µM; in the test with UACC-62 melanoma, 47.2 µM. Moreover, the TGI in the test on NCI-H460 lung is more than 100 µM; with SF-268 CNS it was 40.5 µM; in the test on SNB-19 CNS, more than 100 µM; in the test on MALME-3M melanoma, 37.5 µM.

As for `O=C(CCC1OCCO1)Nc1cc(NCc2ccccc2)ccc1OCc1ccccc1`, the TGI in the test on OVCAR-5 ovarian, in the test on SK-MEL-28 melanoma, with NCI-H23 lung, in the test with U251 CNS, in the test with IGROV1 ovarian and in the test with UACC-62 melanoma was more than 100 µM each time. Also, the TGI in the test on NCI-H460 lung is more than 100 µM; in the test on SF-268 CNS, more than 100 µM; with SNB-19 CNS, more than 100 µM; in the test with MALME-3M melanoma, 62.7 µM.

For `COc1cccc(C#Cc2ccccc2C#CCCCCO)c1`, the GI50 was 14.6 µM in the test with OVCAR-5 ovarian; 15.3 µM in the test with SK-MEL-28 melanoma; 12.5 µM in the test on NCI-H23 lung; 8.41 µM in the test with U251 CNS; 10.3 µM with IGROV1 ovarian; 5.7 µM in the test on UACC-62 melanoma. Also, the GI50 is 16.1 µM in the test with NCI-H460 lung, 16.1 µM in the test on SF-268 CNS, 18.5 µM in the test with SNB-19 CNS and 13.9 µM in the test with MALME-3M melanoma. Besides, the TGI in the test on OVCAR-5 ovarian is 29.3 µM; with SK-MEL-28 melanoma it was 30.3 µM; in the test with NCI-H23 lung it was 26.1 µM; with U251 CNS, 22.3 µM; with IGROV1 ovarian, 22.6 µM; in the test on UACC-62 melanoma, 19.8 µM. Moreover, the TGI was 34 µM in the test on NCI-H460 lung, 33.5 µM with SF-268 CNS, 35.5 µM in the test with SNB-19 CNS and 37.9 µM with MALME-3M melanoma.

In the case of `C=C1C(=O)OC2/C=C(\COC(C)=O)CCC(OC(C)=O)C3=CC(OC3=O)C12` (centres undefined), the TGI in the test with OVCAR-5 ovarian was 33.3 µM; in the test with SK-MEL-28 melanoma it was 11.6 µM; with NCI-H23 lung, 20.7 µM; in the test on U251 CNS it was 33.9 µM; in the test on IGROV1 ovarian, more than 56.3 µM; in the test with UACC-62 melanoma, 17.6 µM. For the same compound, the TGI is 37.8 µM with NCI-H460 lung, 50 µM in the test with SF-268 CNS, 36.3 µM with SNB-19 CNS and 4.41 µM with MALME-3M melanoma.

`C[C@H](O)C(=O)N1CCC(CCn2c(Sc3cc4c(cc3Br)OCO4)nc3c(N)ncnc32)CC1`: the GI50 was 2.74 µM in the test on OVCAR-5 ovarian; 1.49 µM in the test with SK-MEL-28 melanoma; 0.689 µM in the test on NCI-H23 lung; 2.14 µM with U251 CNS; 1.32 µM in the test with IGROV1 ovarian; 0.862 µM in the test with UACC-62 melanoma. For the same compound, the GI50 with NCI-H460 lung was 0.432 µM; with SF-268 CNS it was 8.83 µM; with SNB-19 CNS, 3.7 µM; in the test with MALME-3M melanoma, 0.807 µM. Besides, the TGI in the test on OVCAR-5 ovarian, with SK-MEL-28 melanoma, in the test with NCI-H23 lung, in the test on U251 CNS, in the test on IGROV1 ovarian and in the test with NCI-H460 lung was more than 100 µM each time. Moreover, the TGI with SF-268 CNS, with SNB-19 CNS and in the test with MALME-3M melanoma was more than 100 µM throughout.

`O=c1cccc(C#CC#CC2=CCCCC2)o1`: the GI50 in the test with OVCAR-5 ovarian is 6.21 µM; with SK-MEL-28 melanoma, more than 29.9 µM; in the test with NCI-H23 lung it was 1.14 µM; in the test on U251 CNS, 4.13 µM; in the test with IGROV1 ovarian, 5.4 µM; in the test with UACC-62 melanoma, 2.87 µM. Besides, the GI50 is 10.6 µM in the test on NCI-H460 lung, 9.15 µM with SF-268 CNS, 12 µM in the test with SNB-19 CNS and 7.34 µM in the test on MALME-3M melanoma. Further, the TGI with OVCAR-5 ovarian was 10.2 µM; in the test on SK-MEL-28 melanoma, more than 52.6 µM; in the test with NCI-H23 lung, 2.87 µM; with U251 CNS it was 9.46 µM; in the test with IGROV1 ovarian, 18.1 µM; with UACC-62 melanoma, 8.56 µM. Moreover, the TGI in the test with NCI-H460 lung was found to be 21.8 µM; in the test on SF-268 CNS, 20.6 µM; with SNB-19 CNS, 32.6 µM; in the test on MALME-3M melanoma, 13.8 µM.
